Experiments:
Assay in all cases: Agar well diffusion assay, zone of inhibition
Format in all cases: cell-based
Conditions in all cases: samples at 100 μl, beyond the well diameter of 6 mm, mean±S.D.
[1] = tested on: Candida albicans (RCMB 05038)
[2] = tested on: Aspergillus fumigatus (RCMB 02567)
Protocol: (§1) Antimicrobial activity of the reduced graphene oxide (rGO) nanoparticles was determined using the agar well diffusion assay method as described by Holder and Boyce, 1994. Three bacterial strains (two gram positive and one gram negative) and one yeast strain, namely, Bacillis subtilis (RCMB 010067), Staphylococcus pneumoniae (RCMB 010011), Escherichia coli (RCMB 010052), and Aspergillus fumigatus (RCMB 02568) were used for the antimicrobial assay.
(§2) The tested organisms were sub-cultured on nutrient agar medium (Oxoid laboratories, UK) for bacteria and Sabouraud dextrose agar (Oxoid laboratories, UK) for fungi. Ampicillin and Gentamicin were used as positive control for gram positive and gram negative bacteria, respectively, while Amphotericin B was used for fungi. The plates were done in triplicates. Bacterial cultures were incubated at 37° C. for 24 h, while the fungal cultures were incubated at 25-30° C. for 3-7 days. Antimicrobial activity was determined by measuring the zone of inhibition [A. Agwa, (2000)]. Samples were tested at a concentration of 100 μl; Data are expressed in the form of (M±S.D.): mean±standard deviation; Diameter of the inhibition zone (mm) beyond the well diameter of 6 mm; NT: not tested; NA: no activity.

[3] = tested on: Bacillis subtilis (RCMB 010068)
Protocol: as §1, §2

[4] = tested on: Streptococcus pneumoniae (RCMB 010011)
Protocol: as §1, §2

[5] = tested on: Escherichia coli (RCMB 010054)
Protocol: as §1, §2

[6] = tested on: Pseudomonas aeruginosa (RCMB 010045)

C[C@@H]1[C@H](O)[C@@H](C)/C=C/C=C/C=C/C=C/C=C/C=C/C=C/[C@H](O[C@@H]2O[C@H](C)[C@@H](O)[C@H](N)[C@@H]2O)C[C@@H]2O[C@](O)(C[C@@H](O)C[C@@H](O)[C@H](O)CC[C@@H](O)C[C@@H](O)CC(=O)O[C@H]1C)C[C@H](O)[C@H]2C(=O)O [Amphotericin B]
Diameter of the inhibition zone [1]: 22.7 ± 1.5 mm
Diameter of the inhibition zone [2]: 21.7 ± 1.5 mm

CC1(C)S[C@@H]2[C@H](NC(=O)[C@H](N)c3ccccc3)C(=O)N2[C@H]1C(=O)O [Ampicillin]
Diameter of the inhibition zone [3]: 31.3 ± 1.5 mm
Diameter of the inhibition zone [4]: 21.0 ± 1.0 mm

Gentamicin
Diameter of the inhibition zone [5]: 20.3 ± 0.58 mm
Diameter of the inhibition zone [6]: 16.0 ± 1.0 mm
